Assay results as given in US5393740A, “Neurotensin Hexapeptides” (Tsumura & Co., priority 1991, dated 1995).
*1 amine or outer side, *2 acyl side, *3 side chain or, on linkers, in order; H or OH if unused. Where a SMILES comes first, the peptide text is derived from it. [ ]: non-standard residue; d: D form. X2 = CCCCN([C@@H](CCCNC(=N)N)C(=O)[*:2])[*:1]; Leu(ol) = CC(C)C[C@H](N)CO

How the values were obtained:
ddY mice = experiment: Acute toxicity test; type: in vivo, mouse; conditions: intravenous injection, 2,000 times (64 μmol/kg) the effective amount
Procedure: An acute toxicity test of peptides Nos. 1, 31 and 32 of the present invention was performed by using, ddY mice. […] No toxic expression was therefore observed.

thrombin = thrombin (Homo sapiens, UniProt P00734); experiment: Protease inhibition action (thrombin, synthetic coloring base S-2238); type: biochemical; conditions: thrombin final conc. 10 U/ml, preincubated at 37° C. for 5 minutes, S-2238 37° C. 15 minutes, 405 nm
Procedure: Each of peptides Nos. 1, 31 to 34 was mixed at various volume with thrombin (final conc. 10 U/ml), and the resultant mixture was preincubated at 37° C. for 5 minutes. A synthetic coloring base (Test Team^R S-2238 available from Daiichi Kagaku Yakuhin) was added to the above preincubated mixture and was reacted at 37° C. for 15 minutes.
2% citric acid was added to the above mixture to stop the reaction. Hydrolysis was performed using residual thrombin, and free p-nitroaniline removed from the synthetic coloring base was subjected to colorimetric determination at a wavelength of 405 nm, thereby obtaining the inhibition capability with reference to 0.1M tris buffer. On the base of the inhibition capability thus obtained, a concentration of the peptides when each peptide inhibited the activity of thrombin with 50%, i.e. IC50 was calculated.

Wistar rats = experiment: Anti-edematous action (freezing-induced vascular cerebral edema); type: in vivo, rat; conditions: left cerebral cortex, 32 nmol/kg i.v. 10 minutes before and 20 minutes after the freezing, male Wistar rats, control 81.4
Procedure: In this experiment, 8-week male Wistar rats were used, and peptides Nos. 1, 31 and 32 dissolved in a saline added with 1% BSA were used.
Iron column whose diameter was 5 mm cooled by dryice acetone was placed on the left epidural portion of each rat to cause a vascular cerebral edema. Freezing was performed to form an injured portion after an hour, and the brain of each rat was taken out. The brain was divided into right and left cerebral cortices, and weights of the left cerebral cortices were measured. The left cerebral cortices was dried at 105° C. for 24 hours, and weights of the dried left cerebral cortices were measured to obtain water contents (%). In this operations, the peptides Nos. 1, 31 and 32 were intravenously injected at the concentration shown in Table 6 to each rat 10 minutes before and 20 minutes after the freezing. As a control, 1 ml/kg of the saline added with 1% BSA instead of the peptides was injected into rat according to same procedures as described above.

Hybrid grown-up dogs = experiment: Anti-DIC action (platelet number after endotoxin); type: in vivo, dog
Procedure: Hybrid grown-up dogs (each group consisted of six dogs) were used in this experiment. 30 mg/kg of pentobarbital were intravenously injected to anesthetize each dog. Intravenous injection of 32 nmol/kg of each of peptides Nos. 1, 31 and 32 was performed. After 30 minutes, 3 mg/kg of an endotoxin derived from Escherichia Coli were intravenously injected while the artificial respiration was performed with air.
Samples of blood were collecting from each dog immediately before the injection of the peptides and 120 minutes after the injection of the endotoxin.
As a control, a experiment was performed according to same procedure as described above except that the hexapeptides was not injected.
The number of platelets is the number per 1 mm^3 (1 μl) of the blood in Table 7.

Wister rats = experiment: Anti-allergic action (passive cutaneous anaphylaxis reaction); type: in vivo, rat; conditions: PCA reaction, 32 nmol g/kg i.v. 10 minutes before provocation, control 188.3 ± 9.71
Procedure: In this experiment, 6-week, male Wister rats (each group consisted of 10 rats) were used, and the back of these rats were shaved.
An anti-egg albumin rat serum was diluted with a saline to forty-fold of its volume, thereby obtaining an anti-egg albumin rat serum solution. 1 ml of the anti-egg albumin rat serum solution was intradermally injected to both side parts against the median line in the shaved portion, thereby sensitizing passively the rats. After 48 hours, 1 ml of a 0.5% Evans blue solution containing 10 mg of a egg-albumin was intravenously injected to the each rat, thereby provocating a passive cutaneous anaphylaxis (PCA) reaction.
After 30 minutes, the rats were decapitated, thereby subjecting to hemorrhage to death. The skins were peeled from the rats, and a long diameter and a short diameter of a blue stained portions caused by the PCA reaction in each rat were measured, and area of the blue-stained portions were calculated on the base of the obtained data.
In these operations, the of peptides Nos. 1, 31 and 32 were dissolved in a sodium acetate buffered solution containing 1% BSA and was intravenously injected to each rat at 10 minutes before the provocation of the PCA reaction. As a control, the sodium acetate buffer solution containing 1% BSA instead of the peptide solutions was injected according to same procedure as described above.

SD rats = experiment: Wound healing action (traction tension of skin wound); type: in vivo, rat; conditions: skin wound stripe, eighth day; 32 nmol/kg i.v. once a day for 8 days; male SD rats; control 456.2 ± 21.6
Description: The male SD rats (each group consisted of 10 rats) were anesthetized with ether and shaved in the back of the each rat, and the anesthetized portion was formed by a length of 30 mm along the median line by using a degreased, sterilized razor blade. The wound was immediately sutured at three equidistant positions, and the stitches were taken out after three days. The rats were subjected to hemorrhage to death in the eighth day, and the skins were peeled from the rats.
A skin stripe having a size of 1 cm×4 cm was formed from a wounded portion of each rat. Both ends of this stripe were set in a wound curing measurement tensile test instrument (TK-251 available from Unicom), and a tensile force (traction tension: g/cm) required to cut the wound portion was measured.
Each hexapeptide compound according to the present invention was dissolved in an acetic acid buffer solution added with 1% BSA and was intravenously injected to each rat for 8 days (once a day) from the date of wound formation. As a control, 1 ml/kg of the sodium acetat buffered solution added with 1% BSA instead of the hexapeptide solutions was injected according to same procedure as described above.

ICR mice = experiment: Anti-shock action (endotoxin-induced lethality); type: in vivo, mouse; conditions: 32 nmol/kg × 4 intravenously, endotoxin (LPS E. coli 0127B8) 10 mg/kg i.v. after 10 minutes; male ICR mice; control 80
Procedure: In this experiment, male ICR mice (each group consisted of 10 mice) each having a weight of 25 g to 35 g were used. Each of peptides Nos. 1, 31 and 32 was dissolved in a sodium acetate buffered solution (pH 6.0) added with 1% BSA or in a physiological saline.
An endotoxin to induce a shock was obtained by dissolving Lipopolysaccharide [E. coli; 0127B8 (Difco)] in a physiological saline.
Each of peptialdes Nos. 1, 31 and 32 was intravenously injected at a by dose of 5 ml/kg to each mouse, and the endotoxin with concentration of 10 mg/kg was intravenously injected at a dose of 5 ml/kg after 10 minutes. The lethal rates (%) of these mice within 24 hours were measured. As a control, 5 ml/kg of the sodium acetate buffered solution added with 1% BSA was injected instead of the hexapeptide of the present invention.

Sprague-Dawley (SD) rats = experiment: Vascular permeability acceleration suppression action (hot-water leg edema); type: in vivo, rat; conditions: suppression of rate of increase in leg volume vs control; 1 ml/kg into femoral vein 10 minutes before dipping leg in 58° C. hot water for one minute; male SD rats
Procedure: After 6-week male Sprague-Dawley (SD) rats (each group consisted of 10 rats) were fed for a week, they were used in this experiment.
The concentrations of samples of the hexapeptides (peptide Nos. 1 to 30) were dissolved by an acetic acid buffer solution added with a 1% bovine serum albumin (BSA).
An aliqrot of 1 ml/kg of each of the peptides Nos. 1 to 30 was injected into the femoral vein of the right leg of each rat anesthetized with 50 mg/kg of Nembutal Sodium (available from Dainippon Pharmaceutical Co., Ltd.). After 10 minutes, the nontreated left leg of the rat was dipped in 58° C. hot water for one minute to form an edema. Each rat was left at room temperature for 29 minutes, and the volumes of both legs of each rat were measured. As a control, the experiment following the same procedure as describe above was performed except that 1 ml/kg of a sodium acetate buffered solution containing 1% BSA instead of the hexapeptide of the present invention was injected in rats.
A rate (%) of increase in leg volume was calculated from the result of the above measurement by equation (1) below: [formula]
The rates were compared with that of the control.
- X: rate of increase in leg volume (%) of the present invention.
Xo: rate of increase in leg volume (%) of the control

| Molecule | acute toxicity (death) (ddY mice) | IC50 (thrombin) [nM] | also measured |
| --- | --- | --- | --- |
| CC[C@H](C)[C@H](NC(=O)[C@H](Cc1ccc(O)cc1)NC(=O)[C@@H]1CCCN1C(=O)[C@H](CCCNC(=N)N)NC(=O)CCCCNC(=N)N)C(=O)N[C@@H](CC(C)C)C(=O)O [Peptide No. 1, Desamino-Arg--Arg--Pro--Tyr--Ile--Leu--OH] | No mice were dead | 2500 |  |
| CC[C@H](C)[C@H](NC(=O)[C@H](Cc1ccc(O)cc1)NC(=O)[C@@H]1CCCN1C(=O)[C@H](CCCNC(=N)N)NC(=O)[C@H](CCCNC(=N)N)NC(C)=O)C(=O)N[C@H](CO)CC(C)C [Peptide No. 31, N-acetyl--Arg--Arg--Pro--Tyr--Ile-Leucinol] | No mice were dead | 2300 |  |
| CC[C@H](C)[C@H](NC(=O)[C@H](Cc1ccc(O)cc1)NC(=O)[C@@H]1CCCN1C(=O)[C@H](CCCNC(=N)N)NC(=O)[C@H](CCCNC(=N)N)NC(C)=O)C(=O)N[C@@H](CC(C)C)C(N)=O [Peptide No. 32, N-acetyl--Arg--Arg--Pro--Tyr--Ile--Leu--NH2] | No mice were dead | 2200 | Water Content (%) (Wistar rats): 80.6%; Average Number of Platelets 120 Minutes after Venous Injection of Endotoxin (Hybrid grown-up dogs; 32 nmol/kg i.v. 30 minutes before 3 mg/kg E. coli endotoxin i.v., control 43 × 10^4): 58 × 10^4 per 1 mm^3 (1 μl) of the blood; Average Number of Platelets Immediately before Injection Endotoxin (Hybrid grown-up dogs; 32 nmol/kg i.v., baseline sample, control 72 × 10^4): 71 × 10^4 per 1 mm^3 (1 μl) of the blood; Area of blue-stained portion (mm^2) (Wister rats): 112.8 ± 4.83 mm^2; Traction Tension (SD rats): 547.0 ± 32.3 g/cm; Lethal rate within 24 hours (%) (ICR mice): 20% |
| CCCCN[C@@H](CCCNC(=N)N)C(=O)N[C@@H](CCCNC(=N)N)C(=O)N1CCC[C@H]1C(=O)N[C@@H](Cc1ccc(O)cc1)C(=O)N[C@H](C(=O)N[C@H](CO)CC(C)C)[C@@H](C)CC [Peptide No. 33, N-buthyl--Arg--Arg--Pro--Tyr--Ile--Leucinol] (H-[X2]RPYI[Leu(ol)]) |  | 2300 |  |
| Desamino-Arg-D-Lys--Pro--Trp--Ile-Leucinol [Peptide No. 23] |  |  | Suppression Rate (%) (Sprague-Dawley (SD) rats): 20.8% |
